Experimental data published in US9045531B2, “HLA-binding peptide, precursor thereof, and DNA fragment and recombinant vector coding for said HLA-binding peptide” (NEC CORPORATION, priority 2006, dated 2015).
No end group written: not given here.

What follows are sequences tested on HLA-A24 molecule (product of the HLA-A*2402 gene) (assay: Experiment of binding peptide to HLA-A2402 molecule (C1R-A24 cells, flow cytometry)). Conditions: HLA-A24 (HLA-A*2402).
Parameters: species or system human
Experimental: The ability of a peptide to bind to an HLA-A24 molecule, which is a product of the HLA-A*2402 gene, was measured using C1R-A24 cells expressing the HLA-A24 gene (cells produced by Professor Masafumi Takiguchi, Kumamoto University being supplied with permission).
After neutralization, purified β2m was added to C1R-A24 cells, the obtained product was added to serial dilutions of a peptide, and incubated on ice for 4 hours.
Subsequently, the MHC-pep count per C1R-A24 cell (proportional to the strength of fluorescence of the above-mentioned fluorescent antibody) was quantitatively measured using a FACScan fluorescence-activated cell sorter (Becton Dickinson Biosciences). A binding dissociation constant Kd value between the HLA-A24 molecule and the peptide was calculated from the average strength of fluorescence per cell by a published method (Udaka et al., Immunogenetics, 51, 816-828, 2000).

Sequence | Binding Experiment Data (−log Kd value)
NLPFERATI [SEQ ID NO: 8] | 7.764
IYRRRDGKW [SEQ ID NO: 10] | 7.497
RMVGGIGRF [SEQ ID NO: 14] | 7.543
ATSPIVPSF [SEQ ID NO: 9] | 7.802
IFLARSALI [SEQ ID NO: 4] | 8.012
IYKRREGKW [SEQ ID NO: 13] | 7.25
ATNPIVPSF [SEQ ID NO: 6] | 7.564
RLLQNSQVF [SEQ ID NO: 2] | 6.915
SLPFERATI [SEQ ID NO: 11] | 7.719
ATNPVVPSF [SEQ ID NO: 7] | 7.808
VGIDPFRLL [SEQ ID NO: 12] | 5.12
IYKRRDGKW [SEQ ID NO: 17] | 7.326
GQISVQPTF [SEQ ID NO: 5] | 7.191
DMNNEGSYF [SEQ ID NO: 18] | 5.374
RMVSGIGRF [SEQ ID NO: 15] | 7.436

Each sequence was assayed on human HLA-A type molecule (assay: Binding experiments, summary statement for HLA-A type molecules). Conditions: summary of the binding experiments.
Experimental: The ability of a peptide to bind to an HLA-A2 molecule, which is a product of the HLA-A*0201 gene, was measured using strain JY cells (obtained from ATCC (American Type Culture Collection)) expressing the HLA-A*0201.
The ability of a peptide to bind to an HLA-A2 molecule, which is a product of the HLA-A*0206 gene, was measured using RA2.6 cells (cell strain newly prepared in Kochi University) in which cDNA of the HLA-A*0206 gene is expressed in RAMS cells, which are mouse TAP peptide transporter deficient cells.

Sequence | binding to a human HLA-A type molecule (result in words)
FQGRGVFEL [SEQ ID NO: 48] | experimentally confirmed to bind
WMACHSAAF [SEQ ID NO: 1] | experimentally confirmed to bind
IYRRRDGKW [SEQ ID NO: 10] | experimentally confirmed to bind
RMVGGIGRF [SEQ ID NO: 14] | experimentally confirmed to bind
RLIQNSITI [SEQ ID NO: 3] | experimentally confirmed to bind
YLEEHPSAG [SEQ ID NO: 21] | experimentally confirmed to bind
ATSPIVPSF [SEQ ID NO: 9] | experimentally confirmed to bind
IFLARSALI [SEQ ID NO: 4] | experimentally confirmed to bind
LILYDKEEI [SEQ ID NO: 51] | experimentally confirmed to bind
IYKRREGKW [SEQ ID NO: 13] | experimentally confirmed to bind
ATNPIVPSF [SEQ ID NO: 6] | experimentally confirmed to bind
DMSNEGSYF [SEQ ID NO: 16] | experimentally confirmed to bind
YLEENPSAG [SEQ ID NO: 26] | experimentally confirmed to bind
RLLQNSQVF [SEQ ID NO: 2] | experimentally confirmed to bind
SLPFERATI [SEQ ID NO: 11] | experimentally confirmed to bind
LIFLARSAL [SEQ ID NO: 52, LIFLARSAL] | experimentally confirmed to bind
ATNPVVPSF [SEQ ID NO: 7] | experimentally confirmed to bind
VGIDPFRLL [SEQ ID NO: 12] | experimentally confirmed to bind
IYKRRDGKW [SEQ ID NO: 17] | experimentally confirmed to bind
GQISVQPTF [SEQ ID NO: 5] | experimentally confirmed to bind
LQNSQVFSL [SEQ ID NO: 49] | experimentally confirmed to bind
DMNNEGSYF [SEQ ID NO: 18] | experimentally confirmed to bind
NLPFERATI [SEQ ID NO: 25] | experimentally confirmed to bind
RMVSGIGRF [SEQ ID NO: 15] | experimentally confirmed to bind
